Assay [1] has as its target T1, murine P2U receptor (Mus musculus, UniProt P35383). As to the kind of experiment: intracellular phosphatidylinositol 4,5-bisphosphate (PIP2) in K562 stable transfectants. It counts as cell-based. As to conditions: transient. The source says:
Stable and Transient Transfections. To generate stable transfectants expressing the P2U receptor, K562 cells were transfected by electroporation (F. Toneguzzo et al., Mol. Cell. Biol. 6, 703 (1986)) with the neomycin-resistance plasmid pP2R1. pP2R1 is pRc/CMV containing a ~2.4 kb HindIII-NotI fragment of the P2U receptor cDNA, missing the first 6 nucleotides of the 5' untranslated region of the full length cDNA. control cells were stably transfected with pRc/CMV. Cells were sedimented at 200×g for 5 min at room temperature, rinsed once with phosphate-buffered saline (10 mM NaH2 PO4, pH 7.4, 120 mM NaCl, 5 mM KCl), and resuspended in phosphate-buffered saline at a final concentration of 4×10^7 cells/ml. The cells were chilled on ice for 10 min and then transferred in 0.5 ml aliquots to prechilled electroporation cuvettes. DNA (40 μg of pP2R1 linearized with PvuI) was added to the cell suspension, the cells were subjected to a single electrical pulse (1 kV, 25 μF) and the cuvettes were placed on ice. After 10 min, growth medium was added and the cells were incubated at 37° C. Fresh growth medium supplemented with 0.7 mg/ml G418 was added 48 h […], and the cells were incubated for 2 weeks to select for stable transfectants expressing neomycin resistance. […]

Assay [2] concerns 1321N1 human astrocytoma cells (uninfected or LSN-infected). As to the kind of experiment: intracellular calcium by fura-2 fluorescence in uninfected or LSN-infected 1321N1 control cells. In kind it is cell-based. The settings on record: uninfected or LSN-infected controls. The protocol: (§1) Heteroloqous Expression. A retroviral vector-containing plasmid, pLHP2USN, was constructed by insertion of the cloned CF/T43 cDNA into the EcoRI and XhoI sites of pLXSN (A. Miller and G. Rosman, Biotechniques 7, 980 (1989)). An amphotrophic packaging cell line, PA317, was used to produce the LHP2USN retroviral vector and a control vector containing Neor only (LSN). Clonal human astrocytoma cells 1321N1, UNC strain, generously provided by T. K. Harden (UNC, Chapel Hill, N.C.), were plated at 150,000 cells per 60-mm dish and infected with LHP2USN or LSN (2 hr, 4 ug/ml Polybrene) and after 48 hr selected with 600 ug/ml G418 (Life Technologies, Inc., Gaithersburg, Md., U.S.A.). To assay for receptor activity, intracellular calcium concentration was measured in confluent cells on coverslips by fura-2 fluorescence using microspectrofluorimetry as previously described (S. Mason et al., Br. J. Pharmacol. 103, 1649 (1991)). Measurement of cell inositol phosphate formation was as described by H. Brown et al., Mol. Pharmacol. 40, 648 (1991), in accordance with known techniques.
(§2) A retrovirus expression system was employed to study the cloned CF/T43 HP2U cDNA in 1321N1 human astrocytoma cells. The effect of extracellular nuceotides on intracellular calcium, as measured by fura-2 fluorescence, was assessed in CF/T43 cells, uninfected 1321N1 cells, and 1321N1 cells infected with retroviral vector containing either the cloned HP2U or no insert (LSN).

The target of assay [3] is T2, human P2U receptor (Homo sapiens, UniProt P41231). Put plainly: inositol phosphate formation in 1321N1 cells expressing LHP2USN. It counts as cell-based. As to conditions: 1321N1 cells expressing LHP2USN pretreated with apyrase. Here is the method:
as §1
To test this possibility more directly, we measured inositol phosphate formation. […] We hypothesized that during the lengthy labeling period 1321N1 cells released 5'-nucleotides into the medium in quantities sufficient to "self-activate" the receptor. […] Thus, it appears the cells are persistently stimulated by nucleotides in an autocrine fashion. The mode of release of nucleotides from the astrocytoma cells and the biological consequences of the persistent autocrine activation are unknown. To facilitate comparison with controls, the inositol phosphate studies were performed on cells pretreated with apyrase.

Assay [4] has as its target T1, murine P2U receptor. Put plainly: cytoplasmic free calcium (fura-2) in K562 cells transfected with P2U receptor cDNA. It counts as cell-based. Details: missing the first 6 nucleotides of the 5' untranslated region of the full length cDNA; expressed in transfected cells; host or cells: K562 human leukemia cells. As to conditions: for increase in [Ca^2+ ]i: K562 cells stably or transiently transfected with P2U receptor cDNA; for time of return of [Ca^2+ ]i to the basal level / time to maximal [Ca^2+ ]i after nucleotide addition: K562 stable or transient transfectants; for effect of depletion of extracellular Ca^2+ by EGTA on nucleotide-mediated increases in [Ca^2+ ]i: stable transfectants. The source says: (§3) Stable and Transient Transfections. To generate stable transfectants expressing the P2U receptor, K562 cells were transfected by electroporation (F. Toneguzzo et al., Mol. Cell. Biol. 6, 703 (1986)) with the neomycin-resistance plasmid pP2R1. pP2R1 is pRc/CMV containing a ~2.4 kb HindIII-NotI fragment of the P2U receptor cDNA, missing the first 6 nucleotides of the 5' untranslated region of the full length cDNA. control cells were stably transfected with pRc/CMV. Cells were sedimented at 200×g for 5 min at room temperature, rinsed once with phosphate-buffered saline (10 mM NaH2 PO4, pH 7.4, 120 mM NaCl, 5 mM KCl), and resuspended in phosphate-buffered saline at a final concentration of 4×10^7 cells/ml. The cells were chilled on ice for 10 min and then transferred in 0.5 ml aliquots to prechilled electroporation cuvettes. DNA (40 μg of pP2R1 linearized with PvuI) was added to the cell suspension, the cells were subjected to a single electrical pulse (1 kV, 25 μF) and the cuvettes were placed on ice. After 10 min, growth medium was added and the cells were incubated at 37° C. Fresh growth medium supplemented with 0.7 mg/ml G418 was added 48 h […], and the cells were incubated for 2 weeks to select for stable transfectants expressing neomycin resistance. Clonal cell lines were then isolated by transferring single cells to individual wells of a 96-well culture plate: each well contained 0.2 ml of conditioned growth medium filtered from K562 stock cultures, 0.2 ml of fresh growth medium, and 0.4 mg/ml G418. The clonal cell lines were cultured for three to four weeks in growth medium containing 0.4 mg/ml G418 and assayed for P2U receptor, the results shown are from one representative clonal cell line.
To generate transient transfectants, K562 cells were transfected as above with 40 μg unlinearized plasmid pCCM6×1 or pP2R (Lustig et al., supra 1993). Cells were incubated for 48 h at 37° C. in 100 mm culture dishes containing 12 ml of growth medium and assayed for P2U receptor activity.
(§4) Cytoplasmic Free Calcium Measurements. Cells were sedimented at 200×g for 5 min at room temperature and washed once with 10 ml of Hepes-bufferedsaline (20 mM Hepes, pH 7.4, 120 mM NaCl, 5 mM KCl, 1 mM MgCl2, and 1 mM CaCl2). Washed cells were suspended in Hepes-buffered saline at 5×10^5 cells/ml, and stored (for up to 4 h) at 37° C. The concentration of cytoplasmic free calcium, [Ca^2+ ]i, was measured by dual-excitation spectrofluorometric analysis of cells loaded with fura-2, a fluorescent probe for calcium.

For assay [5], the target named is T2, human P2U receptor. Put plainly: intracellular calcium by fura-2 fluorescence in 1321N1 human astrocytoma cells expressing the cloned HP2U (LHP2USN). In kind it is cell-based. As to conditions: for [Ca^2+ ]i in absence of extracellular Ca^2+: HP2U-1321N1 cells. The protocol:
as §1, §2
To examine the pharmacological specifity of the HP2U clone expressed in 1321N1 cells, concentration-effect curves were generated for nucleotides and structural analogues active at P2X, P2Y and P2U receptors (data not shown). […] These concentration-effect relations are very similar to those reported for heterologously expressed murine P2U (Lustig, et al., supra) and virtually indistinguishable from data (not shown) generated for the endogenous CF/T43 and HT-29 receptors. Clearly, the agonist specifities fit the definition of the P2U receptor.

The target of assay [6] is T1, murine P2U receptor. Details: host or cells: Xenopus oocytes. As to conditions: Lustig et al. 1993, cited from earlier work; for EC50: Xenopus oocytes, read-out: EC50 in Xenopus oocytes expressing the P2U receptor; for activation of the cloned murine receptor: background.
The target of assay [7] is T3, P2U receptor of CF/T43 cells (Homo sapiens, UniProt P41231).
T3 construct: fura-2 calcium
Put plainly: intracellular calcium by fura-2 fluorescence in CF/T43 cells (endogenous receptor). It counts as cell-based. As to conditions: for [Ca^2+ ]i response to extracellular nucleotide: 10^-4 M (printed for UTP). Here is the method: as §1, §2

The subject of assay [8] is P2T receptor of K562 cells. As to the kind of experiment: cytoplasmic free calcium (fura-2) in untransfected or vector-transfected K562 cells. In kind it is cell-based, human. As to conditions: untransfected or vector-transfected K562 cells.
Text: as §3, §4

SMILES strings stand for the structures. Read-outs that look alike come from different tables or passages of the source.

T3 sequence (P41231 whole entry): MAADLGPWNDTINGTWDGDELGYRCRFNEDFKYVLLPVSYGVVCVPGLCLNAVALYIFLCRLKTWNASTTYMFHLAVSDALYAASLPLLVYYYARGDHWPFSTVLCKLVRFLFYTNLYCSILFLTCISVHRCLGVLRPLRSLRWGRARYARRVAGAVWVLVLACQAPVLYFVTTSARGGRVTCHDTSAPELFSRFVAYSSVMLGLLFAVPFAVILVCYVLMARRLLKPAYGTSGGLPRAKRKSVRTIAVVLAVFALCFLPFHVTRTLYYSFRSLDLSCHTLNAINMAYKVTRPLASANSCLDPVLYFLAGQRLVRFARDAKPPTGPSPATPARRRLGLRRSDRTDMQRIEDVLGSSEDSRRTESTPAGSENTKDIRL
T2 sequence (P41231 whole entry): as above
T1 sequence (P35383 whole entry, the tested form may be a part): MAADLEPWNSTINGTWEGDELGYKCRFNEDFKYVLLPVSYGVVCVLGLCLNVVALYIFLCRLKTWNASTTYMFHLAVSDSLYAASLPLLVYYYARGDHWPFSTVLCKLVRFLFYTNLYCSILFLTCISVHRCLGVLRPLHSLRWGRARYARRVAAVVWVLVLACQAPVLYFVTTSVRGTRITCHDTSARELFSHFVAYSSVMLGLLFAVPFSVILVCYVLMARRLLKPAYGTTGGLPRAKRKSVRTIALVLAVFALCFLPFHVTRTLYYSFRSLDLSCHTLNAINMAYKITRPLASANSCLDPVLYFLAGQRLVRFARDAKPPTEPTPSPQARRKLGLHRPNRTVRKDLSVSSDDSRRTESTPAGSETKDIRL

As for `Nc1ncnc2c1ncn2[C@@H]1O[C@H](COP(=O)(O)OP(=O)(O)OP(=O)(O)O)[C@@H](O)[C@H]1O` [ATP], the “reduction of intracellular levels of phosphatidylinositol 4,5-bisphosphate (PIP2)” value at murine P2U receptor [1] is on record as “approximately 10%”. Besides, the “[Ca^2+ ]i response of uninfected or LSN-infected 1321N1 cells” value in assay [2] is listed as “the same result observed with UTP”. Further, the inositol phosphate accumulation entry at human P2U receptor [3] was “increased inositol phosphate accumulation”. On murine P2U receptor [4], the EC50 is approximately 1400 nM, the “increase in [Ca^2+ ]i” value is listed as “two-fold increase”, the “time of return of [Ca^2+ ]i to the basal level” value is given as not above 1 min and the “time to maximal [Ca^2+ ]i after nucleotide addition” value was not above 5 s. Also, on murine P2U receptor [4], the “effect of depletion of extracellular Ca^2+ by EGTA on nucleotide-mediated increases in [Ca^2+ ]i” value was “not affected”. Besides, at human P2U receptor [5], the EC50 was found to be 1000 nM and the “[Ca^2+ ]i in absence of extracellular Ca^2+” value was “raised [Ca^2+ ]i”. Besides, the “[Ca^2+ ]i response of 1321N1 cells expressing the LHP2USN vector” value on human P2U receptor [5] (Ca2+-free and Ca2+-containing media) is given as “the same result observed with UTP”. At murine P2U receptor [6], the EC50 is approximately 1000 nM and the “activation of the cloned murine receptor” value is listed as “activated”. In assay [7], the “[Ca^2+ ]i response to extracellular nucleotide” value is reported as “the same result observed with UTP” and the “[Ca^2+ ]i response to extracellular nucleotide in Ca2+-free medium” value is “the same result observed with UTP”. In addition, in assay [8], the “elevation of [Ca^2+ ]i in untransfected or vector-transfected K562 cells” value was “Neither ATP nor UTP elevated [Ca^2+ ]^i”.

With `O=c1ccn([C@@H]2O[C@H](COP(=O)(O)OP(=O)(O)OP(=O)(O)O)[C@@H](O)[C@H]2O)c(=O)[nH]1` [UTP], on murine P2U receptor [1], the “reduction of intracellular levels of phosphatidylinositol 4,5-bisphosphate (PIP2)” value is “approximately 10%”. Moreover, the “[Ca^2+ ]i response of uninfected or LSN-infected 1321N1 cells” value in assay [2] was “no effect”. Moreover, the inositol phosphate accumulation result on human P2U receptor [3] is reported as “increased inositol phosphate accumulation”. Also, on murine P2U receptor [4], the EC50 is approximately 800 nM, the “increase in [Ca^2+ ]i” value was “two-fold increase”, the “time of return of [Ca^2+ ]i to the basal level” value is not above 1 min and the “time to maximal [Ca^2+ ]i after nucleotide addition” value is not above 5 s. In addition, on murine P2U receptor [4], the “effect of depletion of extracellular Ca^2+ by EGTA on nucleotide-mediated increases in [Ca^2+ ]i” value is reported as “not affected”. For the same compound, at human P2U receptor [5], the EC50 is 1400 nM and the “[Ca^2+ ]i in absence of extracellular Ca^2+” value is “raised [Ca^2+ ]i”. Further, the “efficacy / effect in concentration-effect curves” value at human P2U receptor [5] (HP2U clone expressed in 1321N1 cells) is “slightly more efficacious”. At murine P2U receptor [6], the EC50 is approximately 1000 nM and the “activation of the cloned murine receptor” value is “activated”. Moreover, in assay [7], the “[Ca^2+ ]i response to extracellular nucleotide” value is “initial sharp increase in [Ca^2+ ]i which relaxed over 1-2 min to a prolonged plateau” and the “[Ca^2+ ]i response to extracellular nucleotide in Ca2+-free medium” value was “sharp increase in [Ca^2+ ]i which returned to baseline without an intervening plateau phase”. Besides, the “elevation of [Ca^2+ ]i in untransfected or vector-transfected K562 cells” value in assay [8] is “Neither ATP nor UTP elevated [Ca^2+ ]^i”.

As usually defined, the EC50 is the concentration giving half of the maximal effect.

These data come from patent US5607836A, “Methods of detecting compounds which bind to the P2U receptor” (The Curators of the University of Missouri, priority 1995, dated 1997).
